Experiments:
Type in all cases: cell-based
[1] = test system: human dermal fibroblasts; HDFs; test: Alizarin Red S staining and absorbance, compound panel, Examples 29-30; details: calcification induction medium; compounds 2 μM (Pifthrin-α 5 μM, DZnep 50 nM); day 28; FIG. 33, 34
Experimental: The compounds added to the medium and the concentrations thereof are as follows. • I-BET151: 2 μM • Pifthrin-α: 5 μM • PD0325901: 2 μM • 2-Me-5HT: 2 μM • CX4945: 2 μM • CHIR99021: 2 μM • Forskolin: 2 μM • DZnep: 50 nM • D4476: 2 μM • SB431542: 2 μM • ALK5 i II: 2 μM.
In the experiment of Example 29, the solution after staining with the Alizarin Red S staining solution was collected in a 96 well plate and the absorbance (OD 550 nm) was measured with an absorption spectrometer.

[2] = test system: human dermal fibroblasts; HDFs; test: Oil Red O staining, fibroblast to brown adipocyte, Example 12; details: compound 2 μM in addition to T3 1 nM and Rosiglitazone 1 μM, adipocyte induction medium; day 14; FIG. 12
Experimental: (§1) The concentrations of the additives are as follows: • T3: 1 nM • Rosiglitazone: 1 μM • D4476: 2 μM • Pifithrin alpha [p53 inhibitor]: 5 μM • SB431542: 2 μM • ALK5 Inhibitor II: 2 μM.
Then, the cells were washed with sterile distilled water and photographed with a phase contrast microscope at ×100 magnification.

[3] = test system: human dermal fibroblasts; HDFs; test: Bodipy staining quantification in WA medium, four inhibitors, Example 49; details: 16 μM compound and 1 μM Rosiglitazone, day 12, FIG. 53
[4] = test system: human dermal fibroblasts; HDFs; test: Alizarin Red S staining (absorbance OD 550 nm), Example 2; details: each compound 2 μM in calcification induction medium; day 24; FIG. 2
Experimental: (§2) The concentrations of the compounds are as follows: • D4476: 2 μM • SB431542: 2 μM • ALK5 inhibitor II: 2 μM.

[5] = test system: human dermal fibroblasts; HDFs; test: Real-time RT-PCR of Osteocalcin and Alkaline Phosphatase, Example 3; details: each compound 2 μM in calcification induction medium; day 24; FIG. 3
Experimental: as §2

[6] = test system: human dermal fibroblasts; HDFs; test: Real-time RT-PCR of CIDEA, Example 13; details: compound 2 μM in addition to T3 1 nM and Rosiglitazone 1 μM, adipocyte induction medium; day 14; FIG. 13
Experimental: as §1

[7] = test system: human dermal fibroblasts; HDFs; test: Real-time RT-PCR of AdipoQ, Example 14; details: D4476, SB431542, ALK5 Inhibitor II 2 μM, PD0325901 1 μM, in addition to T3 and Rosiglitazone; day 14; FIG. 14
Experimental: The concentrations of the additives are as follows: • T3: 1 nM • Rosiglitazone: 1 μM • D4476: 2 μM. • Pifithrin alpha [p53 inhibitor]: 5 μM • PD0325901: 1 μM • SB431542: 2 μM • ALK5 Inhibitor II: 2 μM.

[8] = test system: human dermal fibroblasts; HDFs; test: Alizarin Red S staining (staining figure), fibroblast to osteoblast, Example 1; details: each compound 2 μM in calcification induction medium; day 24; FIG. 1
Experimental: It was washed 3 times with sterile distilled water. […] The well after staining was washed with sterile distilled water and photographed.
The concentrations of the compounds are as follows: • D4476: 2 μM • ALK5 inhibitor II: 2 μM • SB431542: 2 μM.

[9] = test system: human dermal fibroblasts; HDFs; test: Bodipy staining in WA medium, four inhibitors, Example 48; details: day 12, FIG. 52; for lipid droplets stained with Bodipy, inhibitor alone: WA medium added with 16 μM compound alone; for lipid droplets stained with Bodipy / conversion to white adipocyte, inhibitor and Rosiglitazone: WA medium added with 16 μM compound and 1 μM Rosiglitazone
[10] = test system: Human normal skin-derived fibroblasts (HDFs); test: Real-time RT-PCR of UCP1, four inhibitors, Example 39; details: 4 μM, 8 μM, 12 μM or 16 μM in adipocyte induction medium Day 1 to Day 8, then compound-free to day 14; FIG. 43
Experimental: The addition concentration of the compound was 4 μM, 8 μM, 12 μM or 16 μM. […] Thereafter, in Day 9-Day 14, culturing was performed in a medium free of ALK5 inhibitor II, LY2157299, SB431542, D4476.

[11] = test system: human dermal fibroblasts; HDFs; test: BODIPY staining and fluorescence intensity, Example 15; details: compound 2 μM in addition to T3 1 nM and Rosiglitazone 1 μM; day 14; FIG. 15A, 15B
Experimental: The concentrations of the additives are as follows: • T3: 1 nM • Rosiglitazone: 1 μM • D4476: 2 μM • SB431541: 2 μM • ALK5 inhibitor II: 2 μM.
The cells were fixed with 4% para-formaldehyde, washed with PBS(−), reacted for 5 min with BODIPY 493/503 (Invitrogen)/PBS solution at room temperature and washed 3 times with PBS. The cells were photographed with a fluorescence microscope at ×200 magnification and the fluorescence intensity was measured.

[12] = test system: Human normal skin-derived fibroblasts (HDFs); test: Immunostaining of UCP1, four inhibitors, Example 40; details: LY2157299 8 μM, SB431542 4 μM, D4476 4 μM, Day 1 to Day 8, day 14, FIG. 44; for conversion of fibroblast to brown adipocyte, UCP1 protein: ALK5 inhibitor II 4 μM; for staining with anti-UCP1 antibody: groups 3-6: ALK5 inhibitor II 4 μM
Experimental: Human normal skin-derived fibroblasts (HDFs) were suspended in a general medium (DMEM added with 10% FBS). […] The adipocyte induction medium is DMEM added with 1 nM T3, 1 μM Rosiglitazone, 0.5 mM 3-isobutyl-1-methylxanthine (IBMX), 0.5 μM dexamethasone, 1 μg/mL Insulin and 10% FBS. Once every 2 days, the culture medium was exchanged with a fresh one, and culturing was performed from Day 1 to Day 8. Thereafter, from Day 9 to Day 14, the cells were cultured in an adipocyte induction medium free of ALK5 inhibitor II, LY2157299, SB431542, D4476. On day 14, the culture medium was removed by suction from each well, and washed with PBS(−). After fixing with 4% para-formaldehyde, the well was washed with PBS (−), Permanent wave Buffer (0.2% Triton-X addition PBS) was added and the well was incubated for 15 min. After washing 3 times with PBS(−), Blocking One was added, and the mixture was incubated at room temperature for 60 min. Anti-UCP-1 antibody (RD MAB6158) was added and the mixture was reacted for 2 hrs at room temperature, and washed 3 times with Wash buffer. CF488-conjugated anti-mouse Ig antibody (Biotum 20014) was added and the mixture was reacted for 2 hrs at room temperature, and washed 3 times with PBS(−). After nuclear staining with SlowFade Gold antifade reagent with DAPI manufactured by Lifetechnology, the cells were photographed with a fluorescence microscope at ×100 magnification.

[13] = test system: Human normal skin-derived fibroblasts (HDFs); test: Alizarin Red S and ALP staining, absorbance, TGF-β pathway inhibitor panel, Examples 31-32; details: for efficiency in converting fibroblast to osteoblast (summary statement): description, conditions not given
Experimental: On day 21, the culture medium was removed from a part of the well, washed with PBS(-), and fixed with a fixative. It was washed 3 times with sterile distilled water. […] In the experiment of Example 31, the solution after staining with the Alizarin Red S staining solution was collected in a 96 well plate and the absorbance (OD 550 nm) was measured with an absorption spectrometer.

[14] = test system: human dermal fibroblasts; HDFs; test: Real-time PCR of AdipoQ, FABP4, PPAR-γ, four inhibitors with Rosiglitazone, Example 50; details: WA medium added with 1 μM Rosiglitazone and 16 μM compound; day 12
Description: On day 12, RNA was recovered from the cells and, in the same manner as in Example 47, mRNA of AdipoQ, FABP4 (mature adipocyte marker), and PPAR-γ (preadipocyte marker) was quantified.

[15] = test system: Human normal skin-derived fibroblasts (HDFs); test: Real-time RT-PCR of ALP, Osteocalcin, Bonesialoprotein, Example 35; details: day 18, FIG. 39
Experimental: The concentrations of the small molecule compound or cytokine added are as follows. • ALK5 i II: 4 μM • 1α,25-dihydroxy Vitamin D3 (VD3): 5 nM • Human insulin-like growth factor-1 (IGF-1): 100 ng/ml.

Cc1[nH]c2ccc(O)cc2c1CCN [2-Me-5HT]
conversion from fibroblast to osteoblast, Alizarin Red S staining and absorbance [1]: do not induce conversion from fibroblast to osteoblast

Cc1c[nH]c(-c2cnc(NCCNc3ccc(C#N)cn3)nc2-c2ccc(Cl)cc2Cl)n1 [CHIR]
conversion from fibroblast to osteoblast, Alizarin Red S staining and absorbance [1]: do not induce conversion from fibroblast to osteoblast

NC(=O)c1ccc(-c2nc(-c3ccc4c(c3)OCCO4)c(-c3ccccn3)[nH]2)cc1 [D4476, 4-[4-(2,3-dihydro-1,4-benzodioxin-6-yl)-5-(2-pyridinyl) 1H-imidazol-2-yl]-benzamide]
conversion of fibroblast to brown adipocyte, Oil Red O staining [2]: converted fibroblast to brown adipocyte
fat accumulation (BODIPY) / conversion to white adipocyte, co-addition of Rosiglitazone [3]: more strongly induced fat accumulation than by the addition of Rosiglitazone alone
conversion of human fibroblast to osteoblast, Alizarin Red S staining (absorbance OD 550 nm) [4]: converted to osteoblast having calcified bone matrix production ability
conversion of human fibroblast to osteoblast, Osteocalcin and Alkaline Phosphatase mRNA [5]: converted to osteoblast expressing osteocalcin and alkaline phosphatase gene
conversion of fibroblast to brown adipocytes, CIDEA mRNA [6]: converted fibroblast to brown adipocytes expressing mRNA of CIDEA gene
conversion of fibroblast to brown adipocytes, AdipoQ mRNA [7]: converted fibroblast to brown adipocytes expressing mRNA of AdipoQ gene
conversion of human fibroblast to osteoblast, Alizarin Red S staining (staining figure) [8]: converted to osteoblast having calcified is bone matrix production ability
conversion from fibroblast to osteoblast, Alizarin Red S staining and absorbance [1]: induce conversion from fibroblast to osteoblast
lipid droplets stained with Bodipy, inhibitor alone [9]: only a few cells contained lipid droplets stained with Bodipy
lipid droplets stained with Bodipy / conversion to white adipocyte, inhibitor and Rosiglitazone [9]: many cells were stained
conversion of fibroblast to brown adipocyte, UCP1 mRNA [10]: converted fibroblast to brown adipocyte strongly expressing UCP1 gene
conversion of fibroblast to brown adipocytes, BODIPY staining and fluorescence intensity [11]: converted fibroblast to brown adipocytes having lipid droplets stained with BODIPY
conversion of fibroblast to brown adipocyte, UCP1 protein [12]: converted fibroblast to brown adipocyte expressing UCP1 protein
staining with anti-UCP1 antibody [12]: many cells were stained with anti-UCP1 antibody
efficiency in converting fibroblast to osteoblast (summary statement) [13]: highly efficient in converting fibroblast to osteoblast
conversion of human fibroblast to white adipocyte (mRNA markers) [14]: converted human fibroblast to white adipocyte

Nc1nccc2c1ncn2[C@@H]1C=C(CO)C(O)[C@@H]1O (stereo partly shown) [DZnep]
conversion from fibroblast to osteoblast, Alizarin Red S staining and absorbance [1]: do not induce conversion from fibroblast to osteoblast

COc1cc2c(cc1-c1c(C)noc1C)ncc1[nH]c(=O)n([C@H](C)c3ccccn3)c12 [I-BET]
conversion from fibroblast to osteoblast, Alizarin Red S staining and absorbance [1]: do not induce conversion from fibroblast to osteoblast

O=C(NOC[C@H](O)CO)c1ccc(F)c(F)c1Nc1ccc(I)cc1F [PD0325901]
conversion of fibroblast to brown adipocytes, AdipoQ mRNA [7]: converted fibroblast to brown adipocytes expressing mRNA of AdipoQ gene
conversion from fibroblast to osteoblast, Alizarin Red S staining and absorbance [1]: do not induce conversion from fibroblast to osteoblast

Cc1ccc(C(=O)Cn2c3c(sc2=N)CCCC3)cc1 [Pifthrin-α]
conversion from fibroblast to osteoblast, Alizarin Red S staining and absorbance [1]: do not induce conversion from fibroblast to osteoblast

NC(=O)c1ccc(-c2nc(-c3ccc4c(c3)OCO4)c(-c3ccccn3)[nH]2)cc1 [SB431542, 4-[4-(1,3-Benzodioxol-5-yl)-5-(pyridin-2-yl)-1H-imidazol-2-yl]benzamide]
conversion of fibroblast to brown adipocyte, Oil Red O staining [2]: converted fibroblast to brown adipocyte
fat accumulation (BODIPY) / conversion to white adipocyte, co-addition of Rosiglitazone [3]: more strongly induced fat accumulation than by the addition of Rosiglitazone alone
conversion of human fibroblast to osteoblast, Alizarin Red S staining (absorbance OD 550 nm) [4]: converted to osteoblast having calcified bone matrix production ability
conversion of human fibroblast to osteoblast, Osteocalcin and Alkaline Phosphatase mRNA [5]: converted to osteoblast expressing osteocalcin and alkaline phosphatase gene
conversion of fibroblast to brown adipocytes, CIDEA mRNA [6]: converted fibroblast to brown adipocytes expressing mRNA of CIDEA gene
conversion of fibroblast to brown adipocytes, AdipoQ mRNA [7]: converted fibroblast to brown adipocytes expressing mRNA of AdipoQ gene
conversion of human fibroblast to osteoblast, Alizarin Red S staining (staining figure) [8]: converted to osteoblast having calcified is bone matrix production ability
conversion from fibroblast to osteoblast, Alizarin Red S staining and absorbance [1]: induce conversion from fibroblast to osteoblast
lipid droplets stained with Bodipy, inhibitor alone [9]: only a few cells contained lipid droplets stained with Bodipy
lipid droplets stained with Bodipy / conversion to white adipocyte, inhibitor and Rosiglitazone [9]: many cells were stained
conversion of fibroblast to brown adipocyte, UCP1 mRNA [10]: converted fibroblast to brown adipocyte strongly expressing UCP1 gene
conversion of fibroblast to brown adipocytes, BODIPY staining and fluorescence intensity [11]: converted fibroblast to brown adipocytes having lipid droplets stained with BODIPY
conversion of fibroblast to brown adipocyte, UCP1 protein [12]: converted fibroblast to brown adipocyte expressing UCP1 protein
staining with anti-UCP1 antibody [12]: many cells were stained with anti-UCP1 antibody
efficiency in converting fibroblast to osteoblast (summary statement) [13]: highly efficient in converting fibroblast to osteoblast
conversion of human fibroblast to white adipocyte (mRNA markers) [14]: converted human fibroblast to white adipocyte

Fc1ccc(Cl)cc1-c1nc(Nc2ccncc2)c2nccnc2n1 [SD208, 2-(5-Chloro-2-fluorophenyl)-4-[(4-pyridyl)amino]pteridine]
conversion of human fibroblast to osteoblast, Alizarin Red S / ALP staining and absorbance ([13]; calcification induction medium, compounds 1 or 4 μM, TGF-β 10 ng/ml, day 21, FIG. 35, 36): can strongly convert human fibroblast to osteoblast
efficiency in converting fibroblast to osteoblast (summary statement) [13]: highly efficient in converting fibroblast to osteoblast

C=C1/C(=C\C=C2/CCC[C@]3(C)[C@@H]([C@H](C)CCCC(C)(C)O)CC[C@@H]23)C[C@@H](O)C[C@@H]1O [VD3, 1α,25-dihydroxy Vitamin D3]
mRNA expression of OC, ALK5 i II and VD3 compared to ALK5 i II ([15]; VD3 5 nM added with ALK5 i II 4 μM): significantly increased

IGF-1: Human insulin-like growth factor-1
mRNA expression of BSP, ALK5 i II and IGF-1 compared to ALK5 i II ([15]; IGF-1 100 ng/ml added with ALK5 i II 4 μM): further significantly increased
